Reference: patent US12495798B2, “Nicotinamide compound and herbicidal composition comprising compound” (KOREA RESEARCH INSTITUTE OF CHEMICAL TECHNOLOGY, priority 2019, dated 2025)

Key:
Type in all cases: in vivo
[1] = test system: barnyard grass; assay: Herbicidal activity test against upland field weeds (soil treatment test); set-up: key to Soil treatment herbicidal activity, barnyard grass: 0 (no control); 100 (complete control); conditions: scale 0 (no control) to 100 (complete control)
In short: (§1)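 Pre-emergence soil surface spray, day after sowing, into sandy loam pots with fertilizer; compounds at 50 or 75 g a.i./ha in 50% acetone, 0.1% Tween-20. Greenhouse at 30±5 °C, 14/10 h light/dark; visual control rated 0–100 against untreated after 14 days (21 if needed).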

[2] = test system: corn; assay: Phytotoxicity test for upland field crops (foliar treatment test); set-up: key: 0 (no harm); 9 (complete withered)
In short: (§2)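 Phytotoxicity was rated on a 0 (no harm) to 9 (complete withered) scale relative to untreated plants, 7 and 14 days after spraying. Crops had been grown in fertilized horticultural soil under greenhouse conditions before foliar application at 19˜300 g a.i./ha.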

[3] = test system: wheat; assay: as above; set-up: key: 0 (no harm); 9 (complete withered)
In short: as §2

[4] = test system: quack grass; assay: Herbicidal activity test against upland field weeds (foliar treatment test); set-up: key to Foliar treatment herbicidal activity, quack grass: 0 (no control); 100 (complete control); conditions: scale 0-100
In short: (§3)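 Greenhouse-grown plants (30±5 °C, 14/10 h light/dark) foliar hand-sprayed with compound in 50% acetone, 0.1% Tween-20 at 50 or 75 g a.i./ha. Control visually scored 0 (none) to 100 (complete) versus untreated after 14 days, or 21 days if needed.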

[5] = test system: velvetleaf; assay: as above; set-up: key to Foliar treatment herbicidal activity, velvet leaf: 0 (no control); 100 (complete control)
In short: as §3

[6] = test system: velvetleaf; assay: Herbicidal activity test against upland field weeds (soil treatment test); set-up: key to Soil treatment herbicidal activity, velvet leaf: 0 (no control); 100 (complete control); conditions: scale 0 (no control) to 100 (complete control)
In short: as §1

[7] = test system: sorghum; assay: Herbicidal activity test against upland field weeds (foliar treatment test); set-up: key to Foliar treatment herbicidal activity, Sorghum: 0 (no control); 100 (complete control); conditions: scale 0-100
In short: as §3

[8] = test system: cocklebur; assay: as above; set-up: key to Foliar treatment herbicidal activity, Cocklebur: 0 (no control); 100 (complete control); conditions: scale 0-100; for pest or weed control at 50 g/ha / Foliar treatment herbicidal activity, Cocklebur: 50 g ai/ha
In short: as §3

[9] = test system: quack grass; assay: Herbicidal activity test against upland field weeds (soil treatment test); set-up: key to Soil treatment herbicidal activity, quack grass: 0 (no control); 100 (complete control); conditions: scale 0 (no control) to 100 (complete control)
In short: as §1

[10] = test system: crabgrass; assay: as above; set-up: key to Soil treatment herbicidal activity, Crabgrass: 0 (no control); 100 (complete control); conditions: scale 0 (no control) to 100 (complete control); for Soil treatment herbicidal activity, Crabgrass: 50 g ai/ha
In short: as §1

[11] = test system: cotton; assay: Phytotoxicity test for upland field crops (foliar treatment test); set-up: key: 0 (no harm); 9 (complete withered)
In short: as §2

[12] = test system: soybean; assay: as above; set-up: key: 0 (no harm); 9 (complete withered)
In short: as §2

[13] = 50 g ai/ha, Corn (7 days after treatment)
[14] = 50 g ai/ha, Corn (14 days after treatment)
[15] = 100 g ai/ha, Corn (7 days after treatment)
[16] = 100 g ai/ha, Corn (14 days after treatment)
[17] = 50 g ai/ha, Wheat (7 days after treatment)
[18] = 50 g ai/ha, Wheat (14 days after treatment)
[19] = 100 g ai/ha, Wheat (7 days after treatment)
[20] = 100 g ai/ha, Wheat (14 days after treatment)
[21] = Abutilon theophrasti, 50 g ai/ha, scale 0-100, read-out: Foliar treatment herbicidal activity, velvet leaf

SMILES | Soil treatment herbicidal activity, barnyard grass ([1]; 50 g ai/ha) | Foliar treatment phytotoxicity, Corn [2, 13] | Foliar treatment phytotoxicity, Corn [2, 14] | Foliar treatment phytotoxicity, Corn [2, 15] | Foliar treatment phytotoxicity, Corn [2, 16] | Foliar treatment phytotoxicity, Wheat [3, 17] | Foliar treatment phytotoxicity, Wheat [3, 18] | Foliar treatment phytotoxicity, Wheat [3, 19] | Foliar treatment phytotoxicity, Wheat [3, 20] | Foliar treatment herbicidal activity, quack grass ([4]; 50 g ai/ha) | pest or weed control at 50 g/ha [5, 21] | Soil treatment herbicidal activity, velvet leaf ([6]; 50 g ai/ha) | plant injury at 50 g/ha ([7]; Sorghum, 50 g ai/ha) | pest or weed control at 50 g/ha ([8]; Xanthium strumarium) | Soil treatment herbicidal activity, quack grass ([9]; 50 g ai/ha) | Soil treatment herbicidal activity, Crabgrass [10] | Foliar treatment herbicidal activity, Cocklebur [8] | also measured
Cn1nnc(CS(=O)(=O)Cc2nc(C(F)(F)F)ccc2C(=O)Nc2nnnn2C)n1 [Compound No. 2-105, N-(1-methyl-1H-tetrazol-5-yl)-2-((((2-methyl-2H-tetrazol-5-yl)methyl)sulfonyl)methyl)-6-(trifluoromethyl)nicotinamide] | 0 | 0 | 0 | 0 | 0 | 3 | 4 | 4 | 4 | 0 | 90% | 100 | 20% | 98% | 0 | 0 |  | 
CCOC(=O)OC(C)n1nnn(C)c1=NC(=O)c1ccc(C(F)(F)F)nc1CSCc1nnn(C)n1 (stereo not shown) [Compound No. 4-10, ethyl (1-(4-methyl-5-((2-((((2-methyl-2H-tetrazol-5-yl)methyl)thio)methyl)-6-(trifluoromethyl)nicotinoyl)imino)-4,5-dihydro-1H-tetrazol-1-yl)ethyl)carbonate] | 100 | 2 | 1 | 3 | 1 | 0 | 0 | 0 | 0 | 0 |  | 100 |  |  | 0 | 100 | 100 | Foliar treatment herbicidal activity, velvet leaf ([5]; 50 g ai/ha, scale 0-100): 100; Foliar treatment herbicidal activity, Sorghum ([7]; 50 g ai/ha): 100
CN(Cc1nnn(C)n1)c1nc(C(F)(F)F)ccc1C(=O)Nc1nnnn1C [Compound No. 2-26, 2-(methyl((2-methyl-2H-tetrazol-5-yl)methyl)amino)-N-(1-methyl-1H-tetrazol-5-yl)-6-(trifluoromethyl)nicotinamide] |  | 0 | 0 | 0 | 0 | 1 | 0 | 1 | 0 |  |  |  |  |  |  |  |  | Soil treatment herbicidal activity, barnyard grass ([1]; 75 g ai/ha): 100; Foliar treatment phytotoxicity, Cotton ([11]; 50 g ai/ha, Cotton (7 days after treatment)): 1; Foliar treatment phytotoxicity, Cotton ([11]; 50 g ai/ha, Cotton (14 days after treatment)): 4; Foliar treatment phytotoxicity, Cotton ([11]; 100 g ai/ha, Cotton (7 days after treatment)): 2; Foliar treatment phytotoxicity, Cotton ([11]; 100 g ai/ha, Cotton (14 days after treatment)): 4; Foliar treatment phytotoxicity, Soybean ([12]; 50 g ai/ha, Soybean (7 days after treatment)): 3; Foliar treatment phytotoxicity, Soybean ([12]; 50 g ai/ha, Soybean (14 days after treatment)): 9; Foliar treatment phytotoxicity, Soybean ([12]; 100 g ai/ha, Soybean (7 days after treatment)): 4; Foliar treatment phytotoxicity, Soybean ([12]; 100 g ai/ha, Soybean (14 days after treatment)): 9; Foliar treatment herbicidal activity, quack grass ([4]; 75 g ai/ha): 0; pest or weed control at 75 g/ha ([5]; Abutilon theophrasti, 75 g ai/ha, scale 0-100, read-out: Foliar treatment herbicidal activity, velvet leaf): 98%; Soil treatment herbicidal activity, velvet leaf ([6]; 75 g ai/ha): 100; plant injury at 75 g/ha ([7]; Sorghum, 75 g ai/ha): 10%; pest or weed control at 75 g/ha ([8]; Xanthium strumarium, 75 g ai/ha): 98%; Soil treatment herbicidal activity, quack grass ([9]; 75 g ai/ha): 0; pest or weed control at 75 g/ha ([10]; Digitaria sanguinalis, 75 g ai/ha): 98%
Cn1nnc(CSCc2nc(C(F)(F)F)ccc2C(=O)N(C(=O)c2ccccc2)c2nnnn2C)n1 [Compound No. 2-109, N-benzoyl-N-(1-methyl-1H-tetrazol-5-yl)-2-((((2-methyl-2H-tetrazol-5-yl)methyl)thio)methyl)-6-(trifluoromethyl)nicotinamide] | 0 | 0 | 0 | 0 | 0 | 2 | 2 | 3 | 3 | 0 | 80% | 100 | 80% |  | 0 | 0 | 100 | 
Cn1nnc(CSCc2nc(C(F)F)ccc2C(=O)Nc2nnnn2C)n1 [Compound No. 2-108, 6-(difluoromethyl)-N-(1-methyl-1H-tetrazol-5-yl)-2-((((2-methyl-2H-tetrazol-5-yl)methyl)thio)methyl)nicotinamide] | 0 | 0 | 0 | 0 | 0 | 3 | 3 | 4 | 4 | 0 | 30% | 0 | 70% | 98% | 0 | 0 |  | 
